Legend:
[1] = system: layer 5 pyramidal neurons in sections of motor cortex; assay: Golgi staining of cortical dendritic spines; format: in vivo, mice; conditions: knockout neurons; P28
Experimental: Samples (<1 cm) from P28 mice are fixed in 10% formalin and 3% potassium bichromate for 24 hours. Tissue is then transferred into 2% silver nitrate for 2 days in the dark at room temperature. Sections from these samples are then cut at 30 μm thickness into distilled water. Sections corresponding to motor cortex are mounted onto slides, air dried for 10 minutes, and then dehydrated through sequential rinses of 93% alcohol, 100% alcohol, and xylene, and then sealed with a coverslip. Images re acquired at 10× (whole cell) and 100× (spine imaging) using a Zeiss Pascal 3 Exciter confocal microscope.
We use Golgi staining to label neurons sparsely and distinctly, and applied high-resolution confocal imaging to measure dendritic spine density and morphology in the labelled cells, restricting analysis to layer 5 pyramidal neurons in sections of motor cortex from critical period mice (P28).
While low-magnification imaging clearly delineates the extent of the dendrites of the pyramidal cells we use higher magnifications to count synaptic contacts and determine the morphological class of each spine. We classify spines as either large and bulbous (“mushroom”, M), short and stubby (“stubby”, S), short and thin (“thin”, T) or filopodia (F).

MeCP2-/y mice = assay: Heart rate measurements (tail clip sensor); format: in vivo; conditions: 8 weeks old
Experimental: Real time cardiac pulse rate is measured using a tail clip sensor (Mouse OX Oximeter-Oakmont, Pa.). Mice are not anesthetized but physically restrained in a fitted open plastic tube. Prior to the recording session the tube is placed overnight in the cages housing the experimental animals to allow habituation. Body temperature is maintained at ˜82-84° F. throughout the recording time. We record 3 trials of 15 minutes for each mouse, mice are 8 weeks old and treated with vehicle or cG-2-AllylP from PIS.
To examine heart rate abnormalities in MeCP2−/y mice and the effect of cG-2-AllylP treatment, we monitor real time cardiac pulse rate in non-anesthetized wild type and MeCP2−/y animals treated with vehicle or cG-2-AllylP.

interleukin-6 = assay: PBBI in rats: IL-6 ELISA; format: in vivo
Excerpt: (§1) The unilateral frontal PBBI model, which mimics the ballistic dynamics of a bullet or fragment wound to the head (Williams, 2003; Williams, 2006), was induced by stereotactic insertion of a custom probe through the right frontal cortex. A temporary cavity was formed by the rapid inflation/deflation (i.e. <40 msec) of an elastic balloon attached to the end of the probe. The PBBI apparatus consisted of a computer-controlled hydraulic pressure generator (Mitre Corp McLean, Va.), a PBBI probe and a stereotaxic frame equipped with a custom-designed probe holder as previously described (Lu, 2009; Williams, 2003). The injury severity was determined by the size of the balloon under control of the computerized hydraulic pressure. The balloon diameter calibrated to 0.63 cm expansion represented 10% of the total rat brain volume thus expressing a 10% PBBI. All surgeries were done under anaesthesia. Groups tested: Sham+vehicle, PBBI+vehicle, PBBI+cG-2-AllylP (30 mg/kg by oral gavage, 30 min post-injury, and again once daily until endpoint). AU procedures were approved by the Institutional Animal Care and Use Committee of WRAIR. Animals were housed in a facility accredited by the AAALAC.
cG-2-AllylP (or vehicle) was administered to the animals via oral gavage at a dose of 30 mg/kg.
Target proteins were quantified with interleukin 1 beta (“IL-1beta”) (GenWay Biotech GWB-SKR107) and interleukin-6 (“IL-6”) (GenWay Biotech GWB-ZZD100) ELISAs according to manufacturer's instructions. Levels were calculated and normalized to total protein concentration as determined by BCA assay (n=9-10 per group).

BAX = assay: PBBI in rats: BAX Western blotting; format: in vivo; conditions: 24 hr, 3 and 7 days after PBBI
Excerpt: as §1, with “AAALAC. […]” for “AAALAC.”
(§2) Samples were analysed at 24 hr and 3 and 7 days post-injury for all groups (sham+vehicle, PBBI+vehicle, PBBI+cG-2-AllylP). […]

BCL2 = assay: PBBI in rats: BCL2 Western blotting; format: in vivo; conditions: 24 hr, 3 and 7 days after PBBI
Excerpt: as §1, with “AAALAC. […]” for “AAALAC.”
as §2

ATF3 = assay: PBBI in rats: ATF3 Western blotting; format: in vivo; conditions: 24 hrs. after PBBI
Excerpt: as §1, with “AAALAC. […]” for “AAALAC.”
as §2

[2] = system: Male patients having Fragile X Syndrome
Experimental: Symptoms are evaluated using one or more of the clinical evaluative tools discussed herein above. Each patient is scored according to one or more clinical evaluative tool for one or more of Repetitive Behavior (RBB), Anxiety, and Sociability. A Clinical Global Impression-Severity (CGI-S) score of 4 or greater, or an ABC total score of 30 or greater are enrolled.
The enrolled patients are divided into groups. […] Placebo (n=20) is strawberry diluent and water.
Efficacy is determined using Clinical Global Impression of Severity (CGI-S), Clinical Global Impression of Improvement (CGI-I), Fragile X Syndrome Rating Scale, clinician-completed Fragile X Domain Specific Concerns (Visual Analog Scale), Caregiver Top Three Concerns (Visual Analogue Scale), Aberrant Behavior Checklist, Vineland Adaptive Behavior Scale, CASI-16, CYBOCS-PDD, seizure diary, computerized eye tracking, computerized measurement of cognition using the KiTap, and the Expressive Language Sampling Task.
Serum levels and changes of standard hematology and chemistry parameters (including thyroid function) are calculated from Baseline through to Day 70. Fundoscopy and tonsil size is documented at Baseline, and Days 14, 28, 42, 36, 70 and 84. […] ECG is assessed at Screening, Baseline, Days 28, 42, 36 and 70. […]

C=CC[C@]12CCCN1C(=O)CNC2=O [cG-2-AllylP, (8aS)-Allyl-hexahydropyrrolo[1,2-a]pyrazine-1,4-dione]
density of spines per unit branch [1]: largely ameliorated in the knockout with treatment | occurrence of irregular heart rate with a lower average rate (MeCP2-/y mice): significantly reduced | IL-6 levels (interleukin-6; 24 hrs. after PBBI, 30 mg/kg oral gavage): decreased IL-6 levels | IL-6 levels (interleukin-6; 3 days after PBBI, 30 mg/kg oral gavage once daily): little effect at 3 days | IL-6 levels (interleukin-6; 7 days after PBBI, 30 mg/kg oral gavage once daily): decreased IL-6 levels | BAX levels (BAX): did not significantly alter BAX | BCL2 levels (BCL2): did not significantly alter | ATF3 expression (ATF3): decreased ATF3 at 24 hrs. after PBBI | clinical outcomes (evaluative tools) ([2]; 35 or 70 mg/kg b.i.d. oral, 28 days): clinically relevant and significant effects to improve clinical outcomes | pERK and pAkt levels ([2]; peripheral lymphocytes): normalizes pERK and pAkt levels

— US11197856B2, “Bicyclic compounds and methods for their use in treating autism” (priority 2013, dated 2021)
